In patent US11975048B2, “Long-acting fatty acid-conjugated GnRH derivatives and pharmaceutical compositions containing same” (NOVEL PHARMA INC., priority 2019, dated 2024):
Values belong to the compound of their own block, whether it stands above or below them. Square brackets hold non-standard residues; d marks the D form. Peptide text beside a SMILES is read from it. * marks the point of attachment. Palmitoyl = CCCCCCCCCCCCCCCC(=O)*

Experiments:
[1] = cited from earlier work
DU-145 = assay: Cell viability assay (CCK-8), prostate cancer cell line DU-145; format: cell-based
Protocol: (§1) GnRH derivatives are clinically applied to the therapy of diseases including breast cancer, prostate cancer, endometriosis, central precocious puberty, and the like. […] An assay for cell viability was performed using the Cell Counting Kit-8 (CCK-8, manufactured by DOJINDO). Each of the cell lines was separated from the T75 flask by trypsinization and transferred to 96-well plates at a density of 1×10^4 cells/mL for DU-145 and at a density of 1×10^5 cells/mL for PC3 and LNCaP, followed by incubation for one hour for attachment.
(§2) Subsequently, each cell line was treated with 100 μM and 200 μM of each of the derivatives of Comparative Examples 1 to 3 and Examples 9 to 16 and the control. In brief, 1% methyl β-cyclodextrin was used as a negative control for cell viability while 0.1% sodium dodecyl sulfate (SDS) served as a positive control. After 48 hours of incubation, the existing culture medium was removed, and 100 μL of fresh culture medium and 10 μL of CCK-8 solution were applied to each cell line. Again, after 48 hours of incubation, the medium solution was replaced by 100 μL of fresh culture medium and 10 μL of CCK-8 solution. The cells were incubated for 4 hours, and then the absorbance was measured at 450 nm to assess cell viability.

PC3 = assay: Cell viability assay (CCK-8), prostate cancer cell line PC3; format: cell-based
Protocol: as §1, §2

LNCaP = assay: Cell viability assay (CCK-8), prostate cancer cell line LNCaP; format: cell-based
Protocol: as §1, §2

[2] = Blood concentration over time and pharmacokinetic analysis after single subcutaneous administration (LC/MSMS); format: in vivo, female SD rats; conditions: rats, 12.5 mg/kg s.c. once
Protocol: The present inventor carried out animal experiments (female SD rats, nine weeks old) in order to examine the increased in vivo half-lives of the prepared fatty acid-conjugated GnRH derivatives. […] DMSO (dimethyl sulfoxide) was used as a solvent as needed. Before administration and at 0.5, 1, 2, and 6 hours and on days 1, 3, 7, 10, 14, 21, and 28 after administration, blood samples were taken from the tail vein of the rats and measured for the blood concentrations of Leuprolide and the derivatives of the Examples, using LC/MSMS. If the concentration reached about 4 ng/mL at a specific time point, no measurements were further made for the next time point.
In the following table, the numerical unit is ng/mL.
The measurement results are graphically depicted in FIGS. 10 to 12. Based on the results, pharmacokinetic analysis was carried out by calculating the half-life (t1/2), clearance rate (CL), volume of distribution (Vd), time to reach the maximum concentration following drug administration (Tmax), maximum concentration following drug administration (Cmax), and systemic exposure to drug (AUCt). The analysis results are as follows.

ovary of female rats = assay: Assay for ovarian morphological change (H&E stained ovaries); format: in vivo; conditions: single subcutaneous dose 12.5 mg/kg (as cyclodextrin compositions), day 28, versus non-treated and methyl-β-cyclodextrin groups
Protocol: Experiments were carried out to examine whether or not the fatty acid-conjugated GnRH derivatives maintain the functional characteristics and incur a morphological change in the ovary.
The pharmaceutical compositions of Examples 9, 10, 13, 14, 15, and 16 were each subcutaneously injected at a single dose of 12.5 mg/kg once at the back of the neck to female rats 9 weeks old. Rats to which no drugs were administered were used as a non-treated control while an aqueous solution of 3 mg of methyl-β-cyclodextrin was injected to a negative control. Each group consisted of 3 rats.
On day 28 after injection, the rats were subjected to an autopsy to excise the ovaries which were then stained with hematoxylin-eosin (H&E stain).
Briefly, ovaries were stained with H&E and observed as follows.
11. After finishing the above procedures, the specimen slides were scanned using a ScanScope® AT slider scanner (Aperio) and the images thus stored were analyzed using the ImageScope program (Aperio). The scanned images are depicted in FIGS. 6 to 9.
It is known that when administered to rats, a GnRH agonist reduces the formation of secondary follicles and Graafian follicles (see: Mohammadbeigi et al., Short-term Administration of Gonadotropin-releasing Hormone Agonist (Buserelin) Induces Apoptosis in Rat Ovarian Developmental Follicles, July 2016). In this experiment, secondary and Graafian follicles on ovary images in each treatment group were indicted by arrows to examine whether the number of the follicles is reduced or not.

[3] = emulsion, same dose; cited from earlier work
[4] = treatment conc. 200 μM, listed as Comparative Example 3

Compound: CC(C)C[C@H](NC(=O)CNC(=O)[C@H](Cc1ccc(O)cc1)NC(=O)[C@H](CO)NC(=O)[C@H](Cc1c[nH]c2ccccc12)NC(=O)[C@H](Cc1cnc[nH]1)NC(=O)[C@@H]1CCC(=O)N1)C(=O)N[C@@H](CCCNC(=N)N)C(=O)N1CCC[C@H]1C(=O)NCC(N)=O [C. Example 1]
in vivo half-life in circulating blood [1]: 2 to 4 min

Compound: CC(C)C[C@H](NC(=O)[C@@H](Cc1c[nH]c2ccccc12)NC(=O)[C@H](Cc1ccc(O)cc1)NC(=O)[C@H](CO)NC(=O)[C@H](Cc1c[nH]c2ccccc12)NC(=O)[C@H](Cc1c[nH]cn1)NC(=O)[C@@H]1CCC(=O)N1)C(=O)N[C@@H](CCCNC(=N)N)C(=O)N1CCC[C@H]1C(=O)NCC(N)=O [C. Example 3, pyroGlu-His-Trp-Ser-Tyr-D-Trp-Leu-Arg-Pro-Gly-NH2]
Viability of DU-145 relative to negative control 1% methyl-β-cyclodextrin (%) (DU-145; treatment conc. 100 μM): 100.92 ± 2.98% | Viability of DU-145 relative to negative control 1% methyl-β-cyclodextrin (%) (DU-145; treatment conc. 200 μM): 94.27 ± 3.47% | Viability of DU-145 relative to negative control 1% methyl-β-cyclodextrin (%) (DU-145; [4]): about 94% | Viability of PC3 relative to negative control 1% methyl-ß-cyclodextrin (%) (PC3; treatment conc. 100 μM): 99.67 ± 3.17% | Viability of PC3 relative to negative control 1% methyl-ß-cyclodextrin (%) (PC3; treatment conc. 200 μM): 95.44 ± 4.03% | Viability of PC3 relative to negative control 1% methyl-ß-cyclodextrin (%) (PC3; [4]): about 95% | Viability of LNCaP relative to negative control 1% methyl-β-cyclodextrin (%) (LNCaP; treatment conc. 100 μM): 92.89 ± 4.33% | Viability of LNCaP relative to negative control 1% methyl-β-cyclodextrin (%) (LNCaP; treatment conc. 200 μM): 90.22 ± 4.03% | Viability of LNCaP relative to negative control 1% methyl-β-cyclodextrin (%) (LNCaP; [4]): about 90%

AUC(0-t) ([2]; female, SD, rat, blood, sc, 12.5 mg/kg, read-out: AUCt (systemic exposure to drug) (converted)): 5190 ng·h/mL | Cmax ([2]; female, SD, rat, blood, sc, 12.5 mg/kg, read-out: Cmax (maximum concentration)): 52.2 ng/mL | half-life ([2]; female, SD, rat, blood, sc, 12.5 mg/kg, read-out: t1/2 (half-life) (converted)): 4.8 days | Tmax ([2]; female, SD, rat, blood, sc, read-out: Tmax (time to reach the maximum concentration) (converted)): 6 h | CL (clearance rate) ([2]; 12.5 mg/kg): 0.051 (mg/kg)/(ng/mL)/Day | Vd (volume of distribution) ([2]; 12.5 mg/kg): 0.351 (mg/kg)/(ng/mL)
Compound: CCCCCCCCCCCCCCCC(=O)N[C@@H](CCC(N)=O)C(=O)N[C@@H](Cc1c[nH]cn1)C(=O)N[C@@H](Cc1c[nH]c2ccccc12)C(=O)N[C@@H](CO)C(=O)N[C@@H](Cc1ccc(O)cc1)C(=O)N[C@H](CC(C)C)C(=O)N[C@@H](CC(C)C)C(=O)N[C@@H](CCCNC(=N)N)C(=O)N1CCC[C@H]1C(=O)NCC [Example 4, Palmitic acid-Gln-His-Trp-Ser-Tyr-D-Leu-Leu-Arg-Pro-NHEt] (Palmitoyl-QHWSY[dL]LRP-NHEt)

Tmax (time to reach the maximum concentration) [2]: 0.25 days | CL (clearance rate) ([2]; 12.5 mg/kg): 0.075 (mg/kg)/(ng/mL)/Day | Cmax (maximum concentration) ([2]; 12.5 mg/kg): 45.7 ng/mL | Vd (volume of distribution) ([2]; 12.5 mg/kg): 0.436 (mg/kg)/(ng/mL) | t1/2 (half-life) ([2]; 12.5 mg/kg): 4.03 days
Compound: CCCCCCCCCCCCCCCC(=O)N[C@@H](CCC(N)=O)C(=O)N[C@@H](Cc1c[nH]cn1)C(=O)N[C@@H](Cc1c[nH]c2ccccc12)C(=O)N[C@@H](CO)C(=O)N[C@@H](Cc1ccc(O)cc1)C(=O)N[C@H](CC(C)C)C(=O)N[C@@H](CC(C)C)C(=O)N[C@@H](CCCNC(=N)N)C(=O)N1CCC[C@H]1C(=O)NCC [Example 6, Palmitic acid-Gln-His-Trp-Ser-Tyr-D-Leu-Leu-Arg-Pro-NHEt] (Palmitoyl-QHWSY[dL]LRP-NHEt)

Compound: CCCCCCCCCCCCOS(=O)(=O)[O-].[Na+] [Positive Control (0.1% SDS), sodium dodecyl sulfate]
Viability of DU-145 relative to negative control 1% methyl-β-cyclodextrin (%) (DU-145; positive control, 0.1% SDS): 18.18 ± 2.32% | Viability of PC3 relative to negative control 1% methyl-ß-cyclodextrin (%) (PC3; positive control, 0.1% SDS): 15.11 ± 1.72% | Viability of LNCaP relative to negative control 1% methyl-β-cyclodextrin (%) (LNCaP; positive control, 0.1% SDS): 20.45 ± 1.58%

Compound: Arachidic acid-Gln-His-Trp-Ser-Tyr-D-Leu-Leu-Arg-Pro-NHEt ({Arachidic acid}-QHWSY[dL]LRP-NHEt; also: acetate salt) [Example 8]
numbers of secondary or Graafian follicles in the ovary (ovary of female rats): decreased

Compound: Arachidic acid-Glu-His-Trp-Ser-Tyr-D-Leu-Leu-Arg-Pro-NHEt ({Arachidic acid}-EHWSY[dL]LRP-NHEt; also: acetate salt) [Example 7]
numbers of secondary or Graafian follicles in the ovary (ovary of female rats): decreased

Compound: Lauric acid-Gln-His-Trp-Ser-Tyr-D-Leu-Leu-Arg-Pro-NHEt ({Lauric acid}-QHWSY[dL]LRP-NHEt; also: acetate salt) [Example 2]
numbers of secondary or Graafian follicles in the ovary (ovary of female rats): decreased

Compound: Lauric acid-Glu-His-Trp-Ser-Tyr-D-Leu-Leu-Arg-Pro-NHEt ({Lauric acid}-EHWSY[dL]LRP-NHEt; also: acetate salt) [Example 1]
numbers of secondary or Graafian follicles in the ovary (ovary of female rats): decreased

Compound: Palmitic acid-Glu-His-Trp-Ser-Tyr-D-Leu-Leu-Arg-Pro-NHEt (Palmitoyl-EHWSY[dL]LRP-NHEt; also: acetate salt) [Example 5]
numbers of secondary or Graafian follicles in the ovary (ovary of female rats): decreased

Compound: dexamethasone palmitate
anti-inflammatory effect relative to dexamethasone alone [3]: 5.6 fold
